The record followed here is patent US20120270237A9, “METHODS FOR THE IDENTIFICATION OF KINASE INTERACTING MOLECULES AND FOR THE PURIFICATION OF KINASE PROTEINS” (Cellzone AG, priority 2009, published 2012).

The term inhibition denotes the change of the read-out against control, counted positive when it falls.

One test concerns the target JNK1 (Homo sapiens, UniProt P45983). Nature of the test: Kinobeads competition binding, HeLa Placenta lysate mix. Also noted: Identified kinases from HeLa Placenta lysate mix with CZC31326; endogenous in cells; host or cells: HeLa cell lysate mixed with placenta tissue lysate. The conditions noted are these: 10 μM free compound. As for the experimental part: (§1) To one aliquot of cell lysate 10 μM of the free compound (FIG. 3, CZC31326) was added and allowed to bind to proteins in the lysate. Then the affinity matrix with the immobilized compound was added to capture proteins that were not interacting with the previously added free compound. Beads were separated from the lysate and bead bound proteins were eluted in SDS sample buffer and subsequently separated by SDS-Polyacrylamide gel electrophoresis (FIG. 10). Suitable gel bands were cut out and subjected to in-gel proteolytic digestion with trypsin. The second lysate aliquot was processed identically, however no free compound was added (DMSO solvent control). Peptides originating from samples 1 and 2 were labeled with iTRAQ reagents (iTRAQ 114 and iTRAQ 117) and the combined samples were analyzed with a nano-flow liquid chromatography system coupled online to a tandem mass spectrometer (LC-MS/MS) experiment followed by iTRAQ reporter ion quantification in the MS/MS spectra as described in Example 2.

For a further test, the target named is DNAPK (Homo sapiens, UniProt P78527). Description: Kinobeads competition binding, HL60 cell lysate. The arrangement: endogenous in cells; host or cells: HL60 (DSMZ ACC3). Conditions: 10 μM free compound. As for the experimental part: (§2) To one aliquot of cell lysate 10 μM of the free compound (FIG. 3, CZC31326) was added and allowed to bind to proteins in the lysate. Then the affinity matrix with the immobilized compound (Example 1) was added to capture proteins that were not interacting with the previously added free compound. Beads were separated from the lysate and bead bound proteins were eluted in SDS sample buffer and subsequently separated by SDS-Polyacrylamide gel electrophoresis (FIG. 4). Suitable gel bands were cut out and subjected to in-gel proteolytic digestion with trypsin. The second lysate aliquot was processed identically, however no free compound was added (DMSO solvent control). Peptides originating from samples 1 and 2 were labeled with iTRAQ reagents (iTRAQ 114 and iTRAQ 117) and the combined samples were analyzed with a nano-flow liquid chromatography system coupled online to a tandem mass spectrometer (LC-MS/MS) experiment followed by iTRAQ reporter ion quantification in the MS/MS spectra (Ross et al., 2004. Mol. Cell. Proteomics 3(12):1154-1169). Further experimental protocols can be found in WO2006/134056 and a previous publication (Bantscheff et al., 2007. Nature Biotechnology 25, 1035-1044). Sepharose-beads with the immobilized compound (100 μl beads per pull-down experiment) were equilibrated in lysis buffer and incubated with a cell lysate sample containing 50 mg of protein on an end-over-end shaker (Roto Shake Genie, Scientific Industries Inc.) for 2 hours at 4° C. […] The iTRAQ reagents are a set of multiplexed, amine-specific, stable isotope reagents that can label peptides on amino groups in up to four different biological samples enabling simultaneous identification and quantitation of peptides. […] Relative protein quantitation was performed using peak areas of iTRAQ reporter ion signals essentially as described in an earlier publication (Bantscheff et al., 2007. Nature Biotechnology 25, 1035-1044).

A further test addresses Erk1 (Homo sapiens, UniProt P27361). Description: Kinobeads competition binding, HL60 cell lysate. The conditions noted are these: 10 μM free compound. Also noted: endogenous in cells; host or cells: HL60 (DSMZ ACC3). As for the experimental part: as §2
The target in another test is FER (Homo sapiens, UniProt P16591). Description: Kinobeads competition binding, HL60 cell lysate. Conditions: 10 μM free compound. The arrangement: endogenous in cells; host or cells: HL60 (DSMZ ACC3). As for the experimental part:
as §2

A further test addresses RSK2 (Homo sapiens, UniProt P51812). Description: Kinobeads competition binding, L-363 cell lysate. Conditions: 10 μM free compound, L-363 lysate. Also noted: endogenous in cells. As for the experimental part: as §1, with “8).” for “10).”
(§3) For this experiment the human plasma cell leukaemia line L-363 was used (German Collection of Microorganisms and Cell Cultures, DSMZ number ACC49, Braunschweig, Germany). Cells were treated for three hours with 20 μM of the proteasome inhibitor MG132 (Z-Leu-Leu-Leu-al, Sigma C2211) prior to cell harvesting.

Another test deals with CaMK2g (Homo sapiens, UniProt Q13555). Description: Kinobeads competition binding, L-363 cell lysate. The conditions noted are these: 10 μM free compound, L-363 lysate. The arrangement: endogenous in cells. The procedure: as §1, with “8).” for “10).”
Chain of CaMK2g (Q13555 whole entry): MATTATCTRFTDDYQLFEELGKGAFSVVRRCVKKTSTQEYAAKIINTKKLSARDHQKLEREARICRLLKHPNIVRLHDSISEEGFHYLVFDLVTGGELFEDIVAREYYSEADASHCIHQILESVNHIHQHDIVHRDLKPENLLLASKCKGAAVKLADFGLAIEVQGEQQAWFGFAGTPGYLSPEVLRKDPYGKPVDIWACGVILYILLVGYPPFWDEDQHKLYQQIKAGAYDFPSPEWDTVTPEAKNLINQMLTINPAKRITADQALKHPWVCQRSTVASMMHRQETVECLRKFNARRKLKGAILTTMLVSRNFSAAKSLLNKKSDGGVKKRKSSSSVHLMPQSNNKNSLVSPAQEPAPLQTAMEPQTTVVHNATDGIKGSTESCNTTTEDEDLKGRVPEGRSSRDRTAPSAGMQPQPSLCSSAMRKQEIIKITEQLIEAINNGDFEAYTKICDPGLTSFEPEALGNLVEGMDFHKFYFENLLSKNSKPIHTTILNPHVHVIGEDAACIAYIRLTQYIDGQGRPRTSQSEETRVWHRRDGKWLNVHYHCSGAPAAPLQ
as §3

In the next test the target is PLK1 (Homo sapiens, UniProt P53350). Description: Kinobeads competition binding, L-363 cell lysate. The conditions noted are these: 10 μM free compound, L-363 lysate. Also noted: endogenous in cells. As for the experimental part: as §1, with “8).” for “10).”
Chain of PLK1 (P53350 whole entry): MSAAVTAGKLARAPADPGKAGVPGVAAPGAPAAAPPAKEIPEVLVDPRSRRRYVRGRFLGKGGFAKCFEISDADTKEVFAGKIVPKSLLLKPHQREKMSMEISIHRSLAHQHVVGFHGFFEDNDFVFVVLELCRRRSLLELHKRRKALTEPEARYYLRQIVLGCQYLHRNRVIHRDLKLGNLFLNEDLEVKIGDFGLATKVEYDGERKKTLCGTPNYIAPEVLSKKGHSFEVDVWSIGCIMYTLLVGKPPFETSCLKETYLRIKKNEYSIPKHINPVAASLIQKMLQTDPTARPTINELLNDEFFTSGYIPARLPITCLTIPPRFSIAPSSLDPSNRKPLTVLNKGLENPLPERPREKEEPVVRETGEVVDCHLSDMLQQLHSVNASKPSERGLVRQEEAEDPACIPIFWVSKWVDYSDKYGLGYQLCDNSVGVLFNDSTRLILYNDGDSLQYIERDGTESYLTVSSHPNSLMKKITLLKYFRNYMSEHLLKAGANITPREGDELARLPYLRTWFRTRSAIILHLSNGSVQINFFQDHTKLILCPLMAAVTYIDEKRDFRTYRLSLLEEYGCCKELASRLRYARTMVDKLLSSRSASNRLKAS
as §3

A further test deals with BIKE (Homo sapiens, UniProt Q9NSY1). Nature of the test: Kinobeads competition binding, L-363 cell lysate. The conditions noted are these: 10 μM free compound, L-363 lysate. Also noted: endogenous in cells. The procedure:
as §1, with “8).” for “10).”
as §3

Chain of BIKE (Q9NSY1 whole entry): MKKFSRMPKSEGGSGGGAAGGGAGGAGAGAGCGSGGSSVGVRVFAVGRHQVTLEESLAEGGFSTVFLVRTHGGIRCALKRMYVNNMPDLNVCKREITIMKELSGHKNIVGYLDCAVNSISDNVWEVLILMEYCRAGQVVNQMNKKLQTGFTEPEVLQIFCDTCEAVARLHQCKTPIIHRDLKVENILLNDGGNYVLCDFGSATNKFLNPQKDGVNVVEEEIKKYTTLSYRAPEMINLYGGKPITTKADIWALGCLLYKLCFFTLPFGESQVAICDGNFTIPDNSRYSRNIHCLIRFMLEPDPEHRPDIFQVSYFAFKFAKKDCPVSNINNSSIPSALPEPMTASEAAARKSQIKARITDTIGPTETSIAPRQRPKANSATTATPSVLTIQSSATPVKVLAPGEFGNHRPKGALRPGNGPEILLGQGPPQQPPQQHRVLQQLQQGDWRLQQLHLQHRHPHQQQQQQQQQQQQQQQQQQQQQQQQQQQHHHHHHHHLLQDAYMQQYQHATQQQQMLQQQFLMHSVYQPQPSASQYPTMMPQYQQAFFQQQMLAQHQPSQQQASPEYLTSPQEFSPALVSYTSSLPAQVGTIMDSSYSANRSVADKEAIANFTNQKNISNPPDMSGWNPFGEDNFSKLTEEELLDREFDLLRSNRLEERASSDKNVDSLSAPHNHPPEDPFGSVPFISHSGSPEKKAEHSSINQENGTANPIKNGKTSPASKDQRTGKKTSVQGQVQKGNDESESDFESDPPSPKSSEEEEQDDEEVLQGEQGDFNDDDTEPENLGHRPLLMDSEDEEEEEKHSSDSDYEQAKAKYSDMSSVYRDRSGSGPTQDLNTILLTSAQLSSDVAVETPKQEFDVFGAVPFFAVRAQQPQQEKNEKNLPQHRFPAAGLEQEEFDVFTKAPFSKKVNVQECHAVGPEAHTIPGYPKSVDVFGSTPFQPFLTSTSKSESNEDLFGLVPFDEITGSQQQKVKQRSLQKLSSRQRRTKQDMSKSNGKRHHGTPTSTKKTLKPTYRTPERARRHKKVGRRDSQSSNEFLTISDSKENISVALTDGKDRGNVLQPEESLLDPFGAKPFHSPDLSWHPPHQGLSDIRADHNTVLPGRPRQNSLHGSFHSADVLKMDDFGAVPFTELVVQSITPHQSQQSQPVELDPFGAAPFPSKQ
Chain of RSK2 (P51812 whole entry): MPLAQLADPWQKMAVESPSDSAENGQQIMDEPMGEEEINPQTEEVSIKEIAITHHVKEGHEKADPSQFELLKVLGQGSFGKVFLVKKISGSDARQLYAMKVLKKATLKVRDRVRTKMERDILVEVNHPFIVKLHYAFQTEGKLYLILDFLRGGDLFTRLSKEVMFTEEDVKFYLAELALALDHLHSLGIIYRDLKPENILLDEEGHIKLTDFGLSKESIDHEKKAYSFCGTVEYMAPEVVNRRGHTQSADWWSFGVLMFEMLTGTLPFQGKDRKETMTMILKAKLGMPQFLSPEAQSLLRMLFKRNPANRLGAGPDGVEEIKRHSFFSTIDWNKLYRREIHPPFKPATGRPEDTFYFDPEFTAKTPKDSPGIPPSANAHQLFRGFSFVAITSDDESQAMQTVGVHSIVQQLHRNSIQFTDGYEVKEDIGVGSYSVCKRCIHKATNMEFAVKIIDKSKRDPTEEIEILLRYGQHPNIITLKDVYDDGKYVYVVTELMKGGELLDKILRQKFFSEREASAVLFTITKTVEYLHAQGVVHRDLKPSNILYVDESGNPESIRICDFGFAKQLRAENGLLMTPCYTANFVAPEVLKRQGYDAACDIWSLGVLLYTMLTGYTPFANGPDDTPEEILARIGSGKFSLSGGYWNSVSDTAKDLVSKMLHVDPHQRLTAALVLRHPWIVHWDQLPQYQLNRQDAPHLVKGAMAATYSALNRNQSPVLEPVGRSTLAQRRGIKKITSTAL
Chain of Erk1 (P27361 whole entry): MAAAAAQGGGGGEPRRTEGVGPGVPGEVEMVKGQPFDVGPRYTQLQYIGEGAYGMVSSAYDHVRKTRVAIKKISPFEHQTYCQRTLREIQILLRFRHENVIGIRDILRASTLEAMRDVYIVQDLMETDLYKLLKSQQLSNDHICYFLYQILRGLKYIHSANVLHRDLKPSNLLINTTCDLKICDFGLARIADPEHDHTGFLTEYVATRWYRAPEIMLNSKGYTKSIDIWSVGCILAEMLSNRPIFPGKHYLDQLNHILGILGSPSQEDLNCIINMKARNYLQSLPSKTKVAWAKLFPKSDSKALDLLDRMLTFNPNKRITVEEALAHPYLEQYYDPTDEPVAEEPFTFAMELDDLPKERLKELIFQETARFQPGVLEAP
Chain of JNK1 (P45983 whole entry): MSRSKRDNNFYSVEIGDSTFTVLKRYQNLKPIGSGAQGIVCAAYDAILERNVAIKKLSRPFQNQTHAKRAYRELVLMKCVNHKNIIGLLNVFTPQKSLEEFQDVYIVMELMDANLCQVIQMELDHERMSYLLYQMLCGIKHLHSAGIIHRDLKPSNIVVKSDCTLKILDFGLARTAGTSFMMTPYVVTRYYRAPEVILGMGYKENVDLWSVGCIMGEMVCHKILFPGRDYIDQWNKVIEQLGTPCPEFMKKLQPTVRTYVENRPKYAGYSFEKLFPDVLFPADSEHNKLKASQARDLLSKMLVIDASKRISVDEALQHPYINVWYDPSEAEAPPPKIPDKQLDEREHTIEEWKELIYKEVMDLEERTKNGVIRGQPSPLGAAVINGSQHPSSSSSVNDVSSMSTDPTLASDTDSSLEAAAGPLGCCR
Chain of FER (P16591 whole entry): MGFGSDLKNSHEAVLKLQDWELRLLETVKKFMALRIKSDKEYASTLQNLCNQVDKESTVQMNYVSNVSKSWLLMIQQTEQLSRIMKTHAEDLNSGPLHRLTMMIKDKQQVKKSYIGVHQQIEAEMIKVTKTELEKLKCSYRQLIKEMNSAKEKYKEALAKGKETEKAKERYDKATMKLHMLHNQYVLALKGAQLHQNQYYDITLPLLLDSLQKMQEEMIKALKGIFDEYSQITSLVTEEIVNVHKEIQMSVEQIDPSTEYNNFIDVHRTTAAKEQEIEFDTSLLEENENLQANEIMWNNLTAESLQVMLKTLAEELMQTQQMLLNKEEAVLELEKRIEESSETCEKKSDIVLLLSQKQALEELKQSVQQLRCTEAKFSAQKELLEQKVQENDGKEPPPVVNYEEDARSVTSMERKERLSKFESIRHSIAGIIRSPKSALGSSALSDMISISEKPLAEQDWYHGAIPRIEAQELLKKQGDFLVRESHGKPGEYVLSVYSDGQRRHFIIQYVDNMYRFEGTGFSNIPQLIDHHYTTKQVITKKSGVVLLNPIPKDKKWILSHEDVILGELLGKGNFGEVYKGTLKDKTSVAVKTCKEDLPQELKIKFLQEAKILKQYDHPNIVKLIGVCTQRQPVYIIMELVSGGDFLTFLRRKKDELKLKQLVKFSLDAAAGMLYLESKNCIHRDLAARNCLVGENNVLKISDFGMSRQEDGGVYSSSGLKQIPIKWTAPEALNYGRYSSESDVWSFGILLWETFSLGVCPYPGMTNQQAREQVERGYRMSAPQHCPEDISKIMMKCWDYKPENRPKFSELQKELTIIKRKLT

On JNK1, `CS(=O)(=O)Nc1ccccc1Nc1nc(Nc2cccc(OCCN)c2)ncc1Cl` [CZC31326, N-(2-(2-(3-(2-aminoethoxy)phenylamino)-5-chloropyrimidin-4-ylamino)phenyl)methanesulfonamide] registered a Competition % of 85%. Moreover, the inhibition at 10 µM at DNAPK was found to be 75.5%; on Erk1, 84.8%; on FER, 97.7%; at RSK2, 97.7%; at CaMK2g it was 75.9%; on PLK1, 96.8%. In addition, the inhibition at 10 µM on BIKE came to 97%.
